Numbered stars: 1 amine (or outer) side, 2 acyl side, 3 side chain; on linkers, the order of the positions; unused ones are H or OH. Square brackets hold non-standard residues; d marks the D form. Peptide text beside a SMILES is read from it. * marks the point of attachment. X3 = COc1cc(CC(=O)[*:2])ccc1N[*:1]; X2 = O=C(Cc1ccc(N[*:1])cc1)[*:2]; NH(2-Me-phenyl) = Cc1ccccc1N*; Boc = CC(C)(C)OC(=O)*; CO = O=C([*:1])[*:2]; NHPh = c1ccc(N*)cc1; X4 = c1ccc(N*)nc1; X1 = Oc1ccccc1N*
Target: T1, VLA4 (Homo sapiens, UniProt P05556+P13612)
T1 construct: endogenous in cells; host or cells: Ramos cells
T1 sequence (P13612 34-1032): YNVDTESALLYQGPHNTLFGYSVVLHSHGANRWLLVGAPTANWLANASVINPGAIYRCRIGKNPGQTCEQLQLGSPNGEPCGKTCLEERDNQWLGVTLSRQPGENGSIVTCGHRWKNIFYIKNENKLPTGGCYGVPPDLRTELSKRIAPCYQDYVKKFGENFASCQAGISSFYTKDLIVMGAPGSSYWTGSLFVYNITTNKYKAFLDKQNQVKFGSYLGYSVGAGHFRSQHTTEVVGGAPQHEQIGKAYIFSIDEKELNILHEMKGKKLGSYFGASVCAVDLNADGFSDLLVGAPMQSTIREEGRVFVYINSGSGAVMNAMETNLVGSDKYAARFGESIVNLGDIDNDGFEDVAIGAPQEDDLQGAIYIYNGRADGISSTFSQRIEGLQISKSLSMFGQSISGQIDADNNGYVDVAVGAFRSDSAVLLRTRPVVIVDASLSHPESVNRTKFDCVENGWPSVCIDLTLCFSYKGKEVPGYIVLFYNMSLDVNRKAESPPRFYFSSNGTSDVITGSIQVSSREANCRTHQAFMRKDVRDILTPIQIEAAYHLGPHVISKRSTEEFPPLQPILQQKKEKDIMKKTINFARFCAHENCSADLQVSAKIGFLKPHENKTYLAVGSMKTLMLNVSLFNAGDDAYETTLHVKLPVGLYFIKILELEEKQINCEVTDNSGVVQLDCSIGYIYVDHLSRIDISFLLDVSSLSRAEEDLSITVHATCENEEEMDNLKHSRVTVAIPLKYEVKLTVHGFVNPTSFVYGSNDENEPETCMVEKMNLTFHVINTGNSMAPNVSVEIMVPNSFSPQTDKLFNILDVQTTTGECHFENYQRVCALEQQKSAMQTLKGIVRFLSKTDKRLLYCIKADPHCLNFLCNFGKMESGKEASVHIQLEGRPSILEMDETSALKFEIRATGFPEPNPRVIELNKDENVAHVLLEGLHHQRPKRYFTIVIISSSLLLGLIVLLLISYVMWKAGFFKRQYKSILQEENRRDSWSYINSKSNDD
T1 sequence (P05556 21-798): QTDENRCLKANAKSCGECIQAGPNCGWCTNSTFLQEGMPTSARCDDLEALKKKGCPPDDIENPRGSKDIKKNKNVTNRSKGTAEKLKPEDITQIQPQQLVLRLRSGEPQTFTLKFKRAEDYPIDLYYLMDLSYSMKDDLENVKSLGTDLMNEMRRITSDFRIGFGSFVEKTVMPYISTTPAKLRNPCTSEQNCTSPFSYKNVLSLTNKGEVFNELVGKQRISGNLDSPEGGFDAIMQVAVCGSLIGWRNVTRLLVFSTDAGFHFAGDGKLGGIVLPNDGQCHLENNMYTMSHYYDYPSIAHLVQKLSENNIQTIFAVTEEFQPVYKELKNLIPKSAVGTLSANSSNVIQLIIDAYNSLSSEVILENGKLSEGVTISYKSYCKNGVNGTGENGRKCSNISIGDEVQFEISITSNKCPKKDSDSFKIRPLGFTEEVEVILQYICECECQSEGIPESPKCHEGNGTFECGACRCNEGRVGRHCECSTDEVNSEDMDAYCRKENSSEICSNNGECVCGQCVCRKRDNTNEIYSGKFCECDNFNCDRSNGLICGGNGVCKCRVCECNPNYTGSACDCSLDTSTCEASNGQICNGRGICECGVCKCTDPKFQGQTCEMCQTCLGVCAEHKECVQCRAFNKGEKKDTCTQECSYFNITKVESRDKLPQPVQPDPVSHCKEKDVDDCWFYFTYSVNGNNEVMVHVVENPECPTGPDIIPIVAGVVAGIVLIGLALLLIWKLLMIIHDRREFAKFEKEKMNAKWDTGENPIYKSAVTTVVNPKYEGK
Assay: Inhibition of VLA4-dependent adhesion of Ramos cells to BSA-CS1
Format: cell-based
Conditions: Ramos cells, BSA-CS1 coated wells, 2 mM MnCl2, 30 minutes at room temperature; read-out: IC50
Excerpt: For example, the cell adhesion inhibitory activity of these compounds may be measured by determining the concentration of inhibitor required to block the binding of VLA-4-expressing cells to fibronectin- or CS1-coated plates. In this assay microtiter wells are coated with either fibronectin (containing the CS1-sequence) or CS-1. If CS-1 is used, it must be conjugated to a carrier protein, such as bovine serum albumin, in order to bind to the wells. Once the wells are coated, varying concentrations of the test compound are then added together with appropriately labelled, VLA-4-expressing cells. Alternatively, the test compound may be added first and allowed to incubate with the coated wells prior to the addition of the cells. The cells are allowed to incubate in the wells for at least 30 minutes. Following incubation, the wells are emptied and washed. Inhibition of binding is measured by quantitating the fluorescence or radioactivity bound to the plate for each of the various concentrations of test compound, as well as for controls containing no test compound.
VLA-4-expressing cells that may be utilized in this assay include Ramos cells, Jurkat cells, A375 melanoma cells, as well as human peripheral blood lymophocytes (PBLs). The cells used in this assay may be fluorescently or radioactively labelled.
This assay was used to assess the potency of VLA4-directed inhibitory compounds of this invention. 1.
We dissolved BSA-SMCC (Pierce Chemical, Rockford, Ill.; Catalog #77115) in H2O at a concentration of 10 mg/mL. [SEQ ID NO:4]: […](“Cys-Tyr-CS1 peptide”), which we synthesized by conventional solid phase chemistry and purified by HPLC, was dissolved in 10 mM HEPES pH 5, 50 mM NaCl and 0.1 mM EDTA also at a concentration of 10 mg/mL. We then mixed 500 μL of BSA-SMCC, 250 μL of Cys-Tyr-CS1 peptide and 75 μL of 1 mM HEPES pH 7.5 and allowed the conjugation reaction to proceed for 30 minutes. We stopped the reaction by adding 1 μL of beta-mercaptoethanol. Samples were analyzed for cross-linking by SDS-PAGE.
We coated the wells of a Linbro titertek polystyrene 96-well flat bottom plate (Flow Laboratories, Maclean, Va.; catalog #76-231-05) with 100 μL of the above-described BSA-CS1 solution diluted to 1 μg/mL in 0.05 M NaHCO3 (15 mM NaHCO3, 35 mM Na2CO3) pH 9.2. Some wells were not coated with CS1 in order to assess non-specific cell binding (NSB). The plate was then incubated overnight at 4° C.
Following this incubation, the contents of the wells were removed by inverting and blotting the plate. All of the wells were then blocked with 100 μL of 1% BSA in PBS, 0.02% NaN3, for a minimum of one hour at room temperature.
Ramos cells are grown, maintained and labelled in RPMI 1640 culture medium containing 1% BSA. Just prior to running the assay, we added 2′, 7′-bis-(2-carboxyethyl)-5(and -6)carboxyfluorescein acetoxymethyl ester (“BCECF-AM”; Molecular Probes Inc., Eugene, Oregon; catalog #B-1150) to a final concentration of 2 μM to a culture of Ramos cells (4×10^6 cells/mL). We incubated the cells for 20 minutes at 37° C.
Following labelling, the cells were washed twice in assay buffer (24 mM TRIS, 137 mM NaCl, 2.7 mM KCl, pH 7.4, containing 0.1 BSA and 2mM glucose) to remove any cations originating from the culture medium. The cells were then resuspended in assay buffer to 4×10^6 cells/mL and 2 mM MnCl2 was added to upregulate VLA4 on the surface of the cells.
Immediately prior to running the assay, we removed the BSA blocking solution from the 96-well plates and washed the wells with 100 μL of assay buffer. We then added to each well 25 μL of test cell adhesion inhibitory compound at 2×the final concentration and 25 μL of the labelled Ramos cells. […] Each concentration of compound was tested in triplicate. The compound and cells are allowed to incubate for 30 minutes at room temperature.

Row | Compound | IC50 [µM]
1 | CC(C)C[C@H](NC(=O)Cc1ccc(NC(=O)Nc2ccccn2)cc1)C(=O)N[C@@H](CC(=O)O)C(=O)N[C@H](C(=O)N1CCC[C@H]1C(=O)O)C(C)C [Compound 316] ({X4-CO}-[X2]LDVP-OH) | < 0.05
2 | Cc1ccccc1NC(=O)Nc1ccc(CC(=O)N[C@H](C(=O)N[C@@H](CC(=O)O)C(=O)N[C@@H](CC(=O)O)C(N)=O)[C@@H](C)O)cc1 [Compound 252] | < 0.05
3 | CC(C)C[C@H](NC(=O)c1cc2ccccc2cn1)C(=O)N[C@@H](CCC(=O)O)C(=O)N[C@H](C(=O)O)C(C)C [Compound 5] | > 10
4 | COC(=O)[C@@H](NC(=O)[C@H](CC(=O)O)NC(=O)[C@H](CC(C)C)NC(=O)Cc1ccccc1)[C@@H](C)O [Compound 191] (HELM PEPTIDE1{[O=C(Cc1ccccc1)[*:2]].L.D.T.[CO[*:1]]}$$$$V2.0) | > 10
5 | CCCCNC(=O)[C@@H](NC(=O)[C@H](CC(=O)O)NC(=O)[C@H](CC(C)C)NC(=O)OC(C)(C)C)[C@@H](C)O [Compound 354] (HELM PEPTIDE1{[CC(C)(C)OC(=O)[*:2]].L.D.T.[CCCCN[*:1]]}$$$$V2.0) | > 10
6 | CC(C)CCNC(=O)[C@H](CC(=O)O)NC(=O)[C@H](CC(C)C)NC(=O)CCc1ccc(O)cc1 [Compound 103] | > 10
7 | CC(C)C[C@H](NC(=O)C(Cc1ccc(O)cc1)N(S(C)(=O)=O)S(C)(=O)=O)C(=O)N[C@@H](CC(=O)O)C(=O)N[C@H](C(=O)O)C(C)C (some centres unmarked) [Compound 65] | > 10
8 | Cc1ccccc1NC(=O)Nc1ccc(CC(=O)N2CCC[C@H]2C(=O)N[C@@H](CCC(=O)O)C(=O)N[C@H](C(N)=O)C(C)C)cc1 [Compound 313] | < 0.05
9 | CNC(=O)[C@@H](NC(=O)[C@H](CC(=O)O)NC(=O)[C@H](CO)NC(=O)Cc1ccccc1)C(C)C [Compound 349] (HELM PEPTIDE1{[O=C(Cc1ccccc1)[*:2]].S.D.V.[CN[*:1]]}$$$$V2.0) | > 10
10 | CC(C)C[C@H](NC(=O)c1ccc2ccccc2n1)C(=O)N[C@@H](CC(=O)O)C(=O)N[C@H](C(=O)N1CCOCC1)C(C)C [Compound 175] | 0.05 to 10
11 | CC(C)C[C@H](NC(=O)C1Cc2ccccc2CN1)C(=O)N[C@@H](CC(=O)O)C(=O)O (some centres unmarked) [Compound 23] (HELM PEPTIDE1{[O=C(C1Cc2ccccc2CN1)[*:2]].L.D}$$$$V2.0) | > 10
12 | CCC(C)C(NC(=O)CCc1ccc(O)cc1)C(=O)NC(CC(=O)O)C(=O)NCC(C)C (centres unmarked) [Compound 17] | > 10
13 | CCCCCCNC(=O)[C@@H](NC(=O)[C@H](CC(=O)O)NC(=O)[C@H](CC(C)C)NC(=O)CCc1ccc(O)cc1)C(C)C [Compound 119] | > 10
14 | CC(C)C[C@H](NC(=O)CCCCc1ccccc1)C(=O)N[C@@H](CC(=O)O)C(=O)N[C@H](C(=O)O)C(C)C [Compound 98] | > 10
15 | COC(=O)[C@H](CCSC)NC(=O)[C@@H](NC(=O)[C@H](CC(=O)O)NC(=O)[C@H](CC(C)C)NC(=O)c1ccc2ccccc2n1)C(C)C [Compound 168] (HELM PEPTIDE1{[O=C(c1ccc2ccccc2n1)[*:2]].L.D.V.M.[CO[*:1]]}$$$$V2.0) | 0.05 to 10
16 | COC(=O)[C@@H](NC(=O)[C@H](CC(=O)O)NC(=O)[C@H](CC(C)C)NC(=O)Cc1ccc(OC)cc1)[C@@H](C)O [Compound 176] | > 10
17 | CC(C)C[C@H](NC(=O)Cc1ccc(NC(=O)Nc2ccccc2)cc1)C(=O)N[C@@H](CC(=O)O)C(=O)N1CCOCC1 [Compound 214] | 0.05 to 10
18 | COc1cc(CC(=O)N[C@@H](CCSC)C(=O)N[C@@H](CC(=O)O)C(=O)N[C@H](C(=O)N2CCC[C@H]2C(=O)O)C(C)C)ccc1NC(=O)Nc1ccccc1 [Compound 2] ({NHPh-CO}-[X3]MDVP-OH) | < 0.05
19 | CC(C)C[C@H](NC(=O)Cc1ccc(NC(=O)Nc2ccccc2O)cc1)C(=O)N[C@@H](CC(=O)O)C(=O)N[C@H](C(=O)N1CCC[C@H]1C(=O)O)C(C)C [Compound 144] ({X1-CO}-[X2]LDVP-OH) | < 0.05

Row | Compound | IC50 [µM]
20 | Cc1ccccc1NC(=O)Nc1ccc(CC(=O)N[C@H](C(=O)N[C@@H](CC(=O)O)C(=O)N[C@@H](CC(C)C)C(N)=O)[C@@H](C)O)cc1 [Compound 253] | < 0.05
21 | Cc1ccccc1NC(=O)Nc1ccc(CC(=O)N[C@@H](CC(C)C)C(=O)N[C@@H](CCC(=O)O)C(=O)N[C@@H](CC(=O)O)C(N)=O)cc1 [Compound 310] | < 0.05
22 | C=CCC(CCc1ccccc1)C(=O)N[C@H](C(=O)N1CCC[C@H]1C(=O)O)C(C)C (some centres unmarked) [Compound 151] | > 10
23 | COC(=O)[C@@H](NC(=O)[C@H](CC(=O)O)NC(=O)CNC(=O)c1ccccc1)C(C)C [Compound 172] (HELM PEPTIDE1{[O=C(c1ccccc1)[*:2]].G.D.V.[CO[*:1]]}$$$$V2.0) | > 10
24 | CC(C)C[C@H](NC(=O)[C@H](CC(=O)O)NC(=O)[C@H](CC(C)C)NC(=O)c1cc2ccccc2cn1)C(=O)O [Compound 91] | > 10
25 | CNC(=O)[C@@H](NC(=O)[C@H](CC(=O)O)NC(=O)C1(NC(=O)Cc2ccccc2)CCc2ccccc2C1)C(C)C (some centres unmarked) [Compound 134] | > 10
26 | CCCCOC(=O)[C@@H](NC(=O)[C@H](CC(=O)O)NC(=O)[C@H](CC(C)C)NC(=O)Cc1ccccc1)C(C)C [Compound 196] | > 10
27 | CC(C)CC(NC(=O)C(Cc1ccc(O)cc1)NC(=O)OC(C)(C)C)C(=O)NC(CC(=O)O)C(=O)NC(C(=O)O)C(C)C (centres unmarked) [Compound 66] (Boc-YLDV-OH; configuration not given here) | > 10
28 | CC(C)[C@H](NC(=O)[C@H](CC(=O)O)NC(=O)c1cc2ccccc2cn1)C(=O)O [Compound 70] | > 10
29 | CNC(=O)[C@@H](NC(=O)[C@H](CC(=O)O)NC(=O)[C@H](CC(C)C)N(C)C(=O)Cc1ccc(O)cc1)C(C)C [Compound 188] | > 10
30 | CC(C)CCNC(=O)[C@H](CC(=O)O)NC(=O)[C@H](CC(C)C)NC(=O)CCCCc1ccccc1 [Compound 102] | > 10
31 | CC(C)C[C@H](NC(=O)c1cc2ccccc2cn1)C(=O)N[C@@H](CC(=O)O)C(=O)N[C@H](C(=O)N1CCC[C@H]1C(=O)O)C(C)C [Compound 32] | > 10
32 | CC(C)C[C@H](NC(=O)CCC(=O)Nc1ccc(F)cc1)C(=O)N[C@@H](CC(=O)O)C(=O)N[C@H](C(=O)O)C(C)C [Compound 108] | > 10
33 | CC(C)C[C@H](NC(=O)c1ccc2ccccc2n1)C(=O)N[C@@H](CC(=O)O)C(=O)N[C@H](C(=O)N(C)c1ccccc1)C(C)C [Compound 121] | > 10
34 | CC[C@H](C)[C@H](NC(=O)[C@H](CC(=O)O)NC(=O)[C@@H](NC(=O)Cc1ccc(NC(=O)Nc2ccccc2C)cc1)[C@@H](C)O)C(N)=O [Compound 255] | < 0.05
35 | CSCC[C@H](NC(=O)Cc1ccc(NC(=O)Nc2ccccc2C)cc1)C(=O)N[C@@H](CC(=O)O)C(=O)N[C@H](C(=O)N1CCC[C@H]1C(=O)O)C(C)C [Compound 315] ({NH(2-Me-phenyl)-CO}-[X2]MDVP-OH) | < 0.05
36 | COC(=O)[C@@H](NC(=O)[C@H](CC(=O)O)NC(=O)[C@H](CC(C)C)N(C)C(=O)c1ccc2ccccc2n1)C(C)C [Compound 142] | > 10
37 | CC(C)CC(NC(=O)Cc1ccc(NC(=O)Nc2ccccc2)cc1)C(=O)NC(CC(=O)O)C(=O)NC(C(=O)N1CCCC1C(N)=O)C(C)C (centres unmarked) [Compound 211] ({NHPh-CO}-[X2]LDVP-NH2; configuration not given here) | 0.05 to 10
38 | CC(C)C[C@H](NC(=O)C1CCc2ccccc2C1)C(=O)N[C@@H](CC(=O)O)C(=O)N[C@H](C(=O)O)C(C)C (some centres unmarked) [Compound 73] | > 10

Reference: US6596687B1, “Cell adhesion inhibitors” (Biogen, Inc., priority 1995, dated 2003)
